Measurements published in publication PMC7204527, “In Vitro Assessment of the Interaction Potential of Ocimum basilicum (L.) Extracts on CYP2B6, 3A4, and Rifampicin Metabolism” (Frontiers in Pharmacology, 2020).
“And” between values parts separate entries of the source, which are not always exact repeats. Equal values may be shown once. Where a name gives a salt, the structure may show the parent alone.

Columns and labels:
CYP2B6 mRNA = CYP2B6 mRNA expression in HepG2 cells (RT-PCR, agarose gel); assay type: cell-based, human; settings: HepG2, 10 μM, positive control, p < 0.001 vs cell control
CYP2B6 = target: T1, CYP2B6 (Homo sapiens, UniProt P20813); assay: Michaelis-Menten kinetics of efavirenz metabolism in HLM
T1 sequence (P20813 1-491): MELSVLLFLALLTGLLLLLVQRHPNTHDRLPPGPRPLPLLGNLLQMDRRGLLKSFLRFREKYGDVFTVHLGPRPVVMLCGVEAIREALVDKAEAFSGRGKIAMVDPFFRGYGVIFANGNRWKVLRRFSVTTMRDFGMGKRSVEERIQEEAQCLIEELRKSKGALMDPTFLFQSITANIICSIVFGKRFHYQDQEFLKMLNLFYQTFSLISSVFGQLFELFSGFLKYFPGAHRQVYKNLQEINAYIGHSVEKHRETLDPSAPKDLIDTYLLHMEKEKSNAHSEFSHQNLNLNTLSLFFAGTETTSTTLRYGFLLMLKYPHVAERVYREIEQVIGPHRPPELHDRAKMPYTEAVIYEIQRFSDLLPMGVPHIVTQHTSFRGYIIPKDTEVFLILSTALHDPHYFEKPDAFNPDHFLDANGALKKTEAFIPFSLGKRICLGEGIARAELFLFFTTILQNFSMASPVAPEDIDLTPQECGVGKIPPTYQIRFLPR

CYP1A2 = tested on: CYP1A2; parameters: method as in Pan et al., 2014; settings: ref Pan et al., 2014; cited from earlier work
[1] = tested on: HIV-1 Reverse Transcriptase (RT)-associated RNase H; parameters: method as in Sonar et al., 2017; settings: in vitro, ref Sonar et al., 2017, cited from earlier work
β-esterases = assay: Michaelis-Menten kinetics of rifampicin metabolism in HLM; assay type: in vitro ADME, human; settings: pooled HLM
CYP3A enzymes = tested on: CYP3A enzymes; parameters: method as in Quintieri et al., 2008; settings: ref Quintieri et al., 2008; cited from earlier work
[2] = target: T2, rifampicin metabolism (β-esterases) (Homo sapiens, UniProt P22760); assay: Time-dependent inhibition (TDI) IC50 shift assay in HLM, rifampicin metabolism; assay type: in vitro ADME; settings: human liver microsomes, probe rifampicin
T2 sequence (P22760 1-399): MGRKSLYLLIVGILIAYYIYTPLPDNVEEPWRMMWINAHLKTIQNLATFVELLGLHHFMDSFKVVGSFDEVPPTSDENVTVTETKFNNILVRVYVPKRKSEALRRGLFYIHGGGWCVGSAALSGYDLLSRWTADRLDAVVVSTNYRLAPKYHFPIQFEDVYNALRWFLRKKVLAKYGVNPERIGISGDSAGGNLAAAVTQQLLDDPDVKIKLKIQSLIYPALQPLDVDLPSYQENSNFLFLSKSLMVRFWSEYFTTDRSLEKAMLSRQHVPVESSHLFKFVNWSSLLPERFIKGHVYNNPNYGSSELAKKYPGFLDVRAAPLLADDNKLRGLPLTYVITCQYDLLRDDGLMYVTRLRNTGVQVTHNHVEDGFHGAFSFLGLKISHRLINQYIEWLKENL
Method: The TDI fold-shift was calculated using the ratio of the IC50s of the normal assay IC50(-) to that of the pre-incubation assay IC50(+), with NADPH (equation 2.8.3.2).
Eq. (2.8.3.2) TDIfold-shift=normal assayIC50(−)/pre-incubation assayIC50(+)
Extracts with fold shifts ≥1.5 were classified positive for TDI ([Nomeir et al., 2004]).

[3] = target: T2, rifampicin metabolism (β-esterases); assay: HLM inhibition assay, rifampicin metabolism to 25-O-desacetyl rifampicin, two-point screening and IC50; assay type: in vitro ADME; settings: liver microsomes, pH 7.4, two-point screening, 49.79 μg/ml, read-out: rifampicin metabolism activity reduced by
Method: The inhibitory potential of each extract was assessed using two-point screening (20 and 200 μg/ml) and the activity potential was compared with the control incubates (without inhibitor). Neostigmine was used as the internal standard.
Briefly, a standard 200 μl incubation mixture containing the liver microsomes (0.5 mg/ml protein concentration for efavirenz, 0.25 mg/ml protein concentration rifampicin), efavirenz (15 μM)/rifampicin (48 μM) in 0.2M phosphate buffer (pH 7.4) and the basil herb extract (final concentration […] or 200 μg/ml, dissolved in <1% solvent) was incubated at 37°C for 30 min, in triplicates, with master reaction mix comprising of NADPH (final concentration 1.3 mM) and other reaction co-factors such as glucose-6-phosphate (final concentration 1.3 mM), glucose-6-phosphate dehydrogenase (1 U/ml) and magnesium chloride (final concentration 3.3 mM). About 200 μl of chilled ice-cold acetonitrile spiked with neostigmine (20 μM) was used to terminate each reaction. These samples were then centrifuged at 13,000 rpm for 10 min and the supernatants were subjected to HPLC analysis. The mobile phase comprised of water (A): acetonitrile (B) at a flow rate of 0.7 ml min^-1 for efavirenz samples and water (A): methanol (B) at a flow rate of 0.8 ml min^-1 for rifampicin samples. […] The percentage of remaining activity was expressed as in the equation below (equation 2.8.3.1): […]

[4] = tested on: UDP glucuronosyltransferases; parameters: method as in Zhang et al., 2005; settings: different assay conditions, bilirubin as the substrate; ref Zhang et al., 2005; read-out: IC50 reported in a previous HLM study; cited from earlier work

C[C@@H]1C[C@H]2[C@@H]3CCC4=CC(=O)C=C[C@]4(C)[C@@]3(F)[C@@H](O)C[C@]2(C)[C@@]1(O)C(=O)CO [Dexamethasone, dexamethasone]
fold induction of CYP2B6 mRNA expression (CYP2B6 mRNA): significant fold induction

O=C1Nc2ccc(Cl)cc2[C@@](C#CC2CC2)(C(F)(F)F)O1 [EFV, efavirenz]
Km (CYP2B6; human, pooled human liver microsomes): 15.1 µM | CLint (Vmax/Km) (CYP2B6; pooled HLM): 0.0240 μl/min/mg protein | Vmax (CYP2B6; pooled HLM, formation of 8-hydroxy efavirenz): 0.3576 pmol/min/mg protein

COc1ccc(-c2cc(=O)c3c(O)c(OC)c(OC)cc3o2)cc1O [Eupatorin, Eupatorin (3′,5-Dihydroxy-4′,6,7-trimethoxyflavone)]
inhibition of CYP1A2 (CYP1A2): inhibits

CCCCCCCC/C=C\CCCCCCCCNC(=O)/C=C/c1ccc(O)c(O)c1 [N-oleylcaffeamide]
inhibition of RT-associated activity of ribonuclease H and DNA polymerase [1]: strongly inhibited

CO[C@H]1/C=C/O[C@@]2(C)Oc3c(C)c(O)c4c(O)c(c(/C=N/N5CCN(C)CC5)c(O)c4c3C2=O)NC(=O)/C(C)=C\C=C\[C@H](C)[C@H](O)[C@@H](C)[C@@H](O)[C@@H](C)[C@H](OC(C)=O)[C@@H]1C [RIF, rifampicin]
CLint (Vmax/Km) (β-esterases): 0.0260 μl/min/mg protein | Vmax (β-esterases; formation of 25-O-desacetyl rifampicin): 1.2330 pmol/min/mg protein | Km (β-esterases; formation of 25-O-desacetyl rifampicin, 0–150 μM): 48.2 µM | Vmax (β-esterases; formation of 25-O-desacetyl rifampicin, listed as RIFAMPICIN): 1.233 pmol/min/mg protein

COc1ccc(-c2cc(=O)c3c(O)c(OC)c(OC)cc3o2)cc1 [Salvigenin, Salvigenin (5-Hydroxy-6,7,4′-trimethoxyflavone)]
inhibition of CYP3A enzymes (CYP3A enzymes): moderate inhibitor

Cc1c(O)cccc1C(=O)N[C@@H](CSc1ccccc1)[C@H](O)CN1C[C@H]2CCCC[C@H]2C[C@H]1C(=O)NC(C)(C)C [nelfinavir, nelfinavir mesylate hydrate]
IC50 ([2]; HLM, 30 min pre-incubation with NADPH, rifampicin as substrate, read-out: TDI IC50 against rifampicin metabolism): 6.39 µM and 3.63 µg/mL | IC50 shift ([2]; rifampicin pathway, fold shift ≥1.5 classified positive for TDI, read-out: IC50 shift-fold, co-incubation IC50(-) / pre-incubation IC50(+)): > 1.5 | inhibition at 0.5 h [3]: 30% | IC50 [4]: 2.7 µM

CCCCCCCCCCCCCCOC(=O)/C=C/c1ccc(O)c(OC)c1 [tetradecyl ferulate]
IC50 ([1]; read-out: IC50, RNase H inhibition): 12.4 µM
